Target: T1, Nr2e3 (Homo sapiens, UniProt Q9Y5X4)
T1 construct: Nr2e3 protein (aa 90-410) was expressed; His8 (N, cleaved yes); MBP (N, cleaved yes); host or cells: E. coli BL21 (DE3)
Assay: Isothermal titration calorimetry (ITC) of PR3 binding to Nr2e3
Conditions: one site model, estimated
Description: FIG. 1F illustrates an isothermal titration calorimetric (ITC) study of PR3 binding to Nr2e3. Nr2e3 protein was expressed as a fusion protein from the expression vector pVP16. The fusion protein was incubated with TEV overnight at 4° C. and then the His8-MBP tags were separated from Nr2e3 by ion exchange chromatography. For isothermal titration calorimetry, […] was injected into […] in a MicroCal ITC-200 (Malvern).
To confirm a direct Nr2e3-PR3 interaction, isothermal titration calorimetry (ITC) was used.
Nr2e3 protein (aa 90-410) was expressed as a His8-MBP-TEV fusion protein from the expression vector pVP16 (DNASU Plasmid ID: HsCD00084154). E. coli BL21 (DE3) cells were grown to an OD600 of 1, and then induced with 0.2 mM IPTG at 16° C. overnight. Cells were harvested, resuspended in extract buffer (20 mM Tris pH 8, 200 mM NaCl, 10% glycerol, 5 mM 2-mercaptoethanol, and saturated PMSF diluted 1:1,000), and then lysed by sonication on ice. Lysates were centrifuged at 4° C. and the supernatant was loaded onto an equilibrated column containing 5 mL of Ni-NTA agarose (Qiagen). […] For isothermal titration calorimetry, 100 μM PR3 was injected into 20 μM Nr2e3 in 10 mM sodium phosphate buffer pH 8 with 50 mM NaCl and 0.5% DMSO in a MicroCal ITC-200 (Malvern) and the data was analyzed with Origin 7.0 software.

T1 sequence (Q9Y5X4 90-410): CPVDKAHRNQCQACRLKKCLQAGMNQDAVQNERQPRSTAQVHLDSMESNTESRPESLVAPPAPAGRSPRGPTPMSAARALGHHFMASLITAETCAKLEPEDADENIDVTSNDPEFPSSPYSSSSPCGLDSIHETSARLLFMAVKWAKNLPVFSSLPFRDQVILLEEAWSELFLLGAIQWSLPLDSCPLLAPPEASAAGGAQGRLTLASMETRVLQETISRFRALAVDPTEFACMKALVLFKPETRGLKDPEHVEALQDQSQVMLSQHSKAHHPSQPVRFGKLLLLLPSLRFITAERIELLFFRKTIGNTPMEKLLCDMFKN

COc1cc2nc(CN3CC=C(c4ccccc4)CC3)nc(O)c2cc1OC [PR3] was tested, and the Kd was roughly 67 µM.
